Laboratory results published in article PMC3950977 (Nanotechnology, 2011).
Peptide text beside a SMILES is read from it. * marks the point of attachment. X1 = NC(=O)CCOCCOCCOCCOCCOCCOCCOCCOCCOCCOCCOCCOCCOCCOCCOCCOCCOCCOCCOCCOCCOCCOCCOCCOCCOCCOCCOCCOCCN*

Tests used:
[1] = Peptide degradation by proteinase K; type: in vitro ADME; settings: isolated enzyme proteinase k, pH 7.1
[2] = transmission electron microscopy and dynamic light scattering; cited from earlier work

For `CC[C@H](C)[C@H](NC(=O)[C@@H](NC(=O)[C@@H](N)Cc1ccccc1)C(C)C)C(=O)N[C@H](C(=O)N[C@@H](CC(C)C)C(=O)N1CCC[C@H]1C(=O)N[C@@H](Cc1ccccc1)C(=O)N[C@@H](Cc1c[nH]c2ccccc12)C(=O)N[C@@H](C)C(=O)N[C@H](C(=O)N[C@@H](CC(=O)O)C(=O)N[C@@H](C)C(=O)N[C@H](C(=O)N[C@@H](C)C(=O)N[C@@H](CC(N)=O)C(=O)N[C@@H](Cc1c[nH]c2ccccc12)C(=O)N[C@@H](Cc1ccc(O)cc1)C(=O)N[C@@H](Cc1ccccc1)C(=O)NCC(=O)N[C@@H](CC(N)=O)C(=O)N[C@@H](CC(=O)O)C(=O)N[C@@H](CC(=O)O)C(=O)NCCOCCOCCOCCOCCOCCOCCOCCOCCOCCOCCOCCOCCOCCOCCOCCOCCOCCOCCOCCOCCOCCOCCOCCOCCOCCOCCOCCOCCC(N)=O)C(C)C)C(C)C)[C@@H](C)O` [x4-2-9] (H-FVITLPFWAVDAVANWYFGNDD-X1), the half-life [1] was 2.9 ± 1.2 min.

In the case of `CC[C@H](C)[C@H](NC(=O)[C@@H](NC(=O)[C@H](Cc1ccccc1)NC(=O)[C@H](CC(C)C)NC(=O)[C@@H](N)CC(C)C)C(C)C)C(=O)N[C@H](C(=O)N[C@@H](CC(C)C)C(=O)N1CCC[C@H]1C(=O)N[C@@H](Cc1ccccc1)C(=O)N[C@@H](Cc1c[nH]c2ccccc12)C(=O)N[C@@H](C)C(=O)N[C@H](C(=O)N[C@@H](CC(=O)O)C(=O)N[C@@H](C)C(=O)N[C@H](C(=O)N[C@@H](C)C(=O)N[C@@H](CC(N)=O)C(=O)N[C@@H](Cc1c[nH]c2ccccc12)C(=O)N[C@@H](Cc1ccc(O)cc1)C(=O)N[C@@H](Cc1ccccc1)C(=O)NCC(=O)N[C@@H](CC(N)=O)C(=O)N[C@@H](CC(=O)O)C(=O)N[C@@H](CC(=O)O)C(=O)NCCOCCOCCOCCOCCOCCOCCOCCOCCOCCOCCOCCOCCOCCOCCOCCOCCOCCOCCOCCOCCOCCOCCOCCOCCOCCOCCOCCOCCC(N)=O)C(C)C)C(C)C)[C@@H](C)O` [x4-2-6] (H-LLFVITLPFWAVDAVANWYFGNDD-X1), the half-life [1] is listed as 11.8 ± 1.8 min and the “diameter of self-assembled nanospheres” value [2] is listed as 10 nm.
